From PubChem BioAssay AID1745844 (Carcinogenic Potency Database (CPDB), 2022)
Active and inactive are the calls of the source. How the calls were made is not given here.

Test system: rodent lifetime carcinogenesis bioassay, tumor incidence TD50
Assay: carcinogenic potency in animals, long-term in vivo studies, CPDB compilation (AID 1745844)

`CN(C)c1ccc(Cc2ccc(N(C)C)cc2)cc1` gave a TD50 (mouse, strain B6C3F1, females, in feed, site: any site (literature study), lesion: several types, types named in the paper, dosed 78 weeks, study length 91 weeks) of 280 mg/kg/day, a TD50 (mouse, strain B6C3F1, females, in feed, site: liver, lesion: hepatocellular adenoma + hepatocellular carcinoma + neoplastic nodule, dosed 78 weeks, study length 91 weeks) of 207 mg/kg/day and a TD50 (mouse, strain B6C3F1, females, in feed, site: liver, lesion: hepatocellular adenoma + hepatocellular carcinoma, dosed 78 weeks, study length 91 weeks) of 207 mg/kg/day. The TD50 (mouse, strain B6C3F1, females, in feed, site: lung, lesion: alveolar/bronchiolar adenoma + alveolar/bronchiolar carcinoma, dosed 78 weeks, study length 91 weeks) was 1080 mg/kg/day, the TD50 (mouse, strain B6C3F1, males, in feed, site: any site (literature study), lesion: several types, types named in the paper, dosed 78 weeks, study length 91 weeks) was 367 mg/kg/day (inactive) and the TD50 (mouse, strain B6C3F1, males, in feed, site: liver, lesion: hepatocellular adenoma + hepatocellular carcinoma + neoplastic nodule, dosed 78 weeks, study length 91 weeks) was 558 mg/kg/day. For the same compound, the TD50 (mouse, strain B6C3F1, males, in feed, site: lung, lesion: alveolar/bronchiolar adenoma + alveolar/bronchiolar carcinoma, dosed 78 weeks, study length 91 weeks) was 1410 mg/kg/day, the TD50 (rat, strain Fischer 344, females, in feed, site: any site (literature study), lesion: several types, types named in the paper, dosed 59 weeks, study length 104 weeks) was 41.7 mg/kg/day and the TD50 (rat, strain Fischer 344, females, in feed, site: liver, lesion: hepatocellular adenoma + hepatocellular carcinoma + neoplastic nodule, dosed 59 weeks, study length 104 weeks) was 203 mg/kg/day. It also gave a TD50 (rat, strain Fischer 344, females, in feed, site: liver, lesion: neoplastic nodule, dosed 59 weeks, study length 104 weeks) of 203 mg/kg/day, a TD50 (rat, strain Fischer 344, females, in feed, site: thyroid gland, lesion: follicular-cell adenoma + follicular-cell carcinoma, dosed 59 weeks, study length 104 weeks) of 16.4 mg/kg/day and a TD50 (rat, strain Fischer 344, females, in feed, site: thyroid gland, lesion: follicular-cell carcinoma, dosed 59 weeks, study length 104 weeks) of 27.7 mg/kg/day. For the same compound, the TD50 (rat, strain Fischer 344, males, in feed, site: any site (literature study), lesion: several types, types named in the paper, dosed 59 weeks, study length 104 weeks) was 42.9 mg/kg/day, the TD50 (rat, strain Fischer 344, males, in feed, site: thyroid gland, lesion: follicular-cell adenoma + follicular-cell carcinoma, dosed 59 weeks, study length 104 weeks) was 16.5 mg/kg/day and the TD50 (rat, strain Fischer 344, males, in feed, site: thyroid gland, lesion: follicular-cell carcinoma, dosed 59 weeks, study length 104 weeks) was 28.6 mg/kg/day.
In the case of `CC(=O)OC1CC(C)OC(C)O1` (stereo not drawn), the TD50 (mouse, strain B6C3F1, females, by gavage, site: any site (literature study), lesion: several types, types named in the paper, dosed 103 weeks, study length 104 weeks) is reported as 3380 mg/kg/day (inactive), the TD50 (mouse, strain B6C3F1, females, by gavage, site: lung, lesion: alveolar/bronchiolar adenoma + alveolar/bronchiolar carcinoma, dosed 103 weeks, study length 104 weeks) is reported as 10400 mg/kg/day and the TD50 (mouse, strain B6C3F1, males, by gavage, site: any site (literature study), lesion: several types, types named in the paper, dosed 103 weeks, study length 104 weeks) is reported as 1820 mg/kg/day. For the same compound, the TD50 (mouse, strain B6C3F1, males, by gavage, site: forestomach, lesion: squamous-cell carcinoma + squamous-cell papilloma, dosed 103 weeks, study length 104 weeks) was 1440 mg/kg/day, the TD50 (mouse, strain B6C3F1, males, by gavage, site: liver, lesion: hepatocellular adenoma + hepatocellular carcinoma + neoplastic nodule, dosed 103 weeks, study length 104 weeks) was 1180 mg/kg/day and the TD50 (mouse, strain B6C3F1, males, by gavage, site: lung, lesion: alveolar/bronchiolar adenoma + alveolar/bronchiolar carcinoma, dosed 103 weeks, study length 104 weeks) was 1450 mg/kg/day. The carcinogen call (rat, strain Fischer 344, females, by gavage, site: any site (literature study), lesion: several types, types named in the paper, dosed 103 weeks, study length 104 weeks) was “negative (inactive)”, the TD50 (rat, strain Fischer 344, females, by gavage, site: liver, lesion: hepatocellular adenoma + hepatocellular carcinoma + neoplastic nodule, dosed 103 weeks, study length 104 weeks) was 2430 mg/kg/day and the carcinogen call (rat, strain Fischer 344, males, by gavage, site: any site (literature study), lesion: several types, types named in the paper, dosed 103 weeks, study length 104 weeks) was “negative (inactive)”. It also gave a TD50 (rat, strain Wistar, males, in drinking water, site: all sites, lesion: lymphosarcoma, dosed 87 weeks, study length 100 weeks) of 29800 mg/kg/day, a TD50 (rat, strain Wistar, males, in drinking water, site: all sites, lesion: myelogenous leukemia, dosed 87 weeks, study length 100 weeks) of 6770 mg/kg/day and a TD50 (rat, strain Wistar, males, in drinking water, site: any site (literature study), lesion: several types, types named in the paper, dosed 87 weeks, study length 100 weeks) of 419 mg/kg/day. For the same compound, the TD50 (rat, strain Wistar, males, in drinking water, site: kidney, lesion: papillary transitional-cell carcinoma, dosed 87 weeks, study length 100 weeks) was 6770 mg/kg/day, the TD50 (rat, strain Wistar, males, in drinking water, site: liver, lesion: hepatoma, dosed 87 weeks, study length 100 weeks) was 716 mg/kg/day and the TD50 (rat, strain Wistar, males, in drinking water, site: skin, lesion: epidermoid carcinoma, dosed 87 weeks, study length 100 weeks) was 6770 mg/kg/day. The TD50 (rat, strain Wistar, males, in drinking water, site: subcutaneous tissue, lesion: fibrosarcoma, dosed 87 weeks, study length 100 weeks) was 6770 mg/kg/day.
In the case of `CCCCC1(COC(=O)CCC(=O)O)C(=O)N(c2ccccc2)N(c2ccccc2)C1=O`, the carcinogen call (rat, strain F344/DuCrj, females, in feed, site: liver, lesion: one or several types, types not named, dosed 104 weeks, study length 104 weeks) is reported as “negative (inactive)”, the TD50 (rat, strain F344/DuCrj, males, in feed, site: adrenal gland, lesion: pheochromocytoma, dosed 104 weeks, study length 104 weeks) is reported as 471 mg/kg/day (inactive) and the carcinogen call (rat, strain F344/DuCrj, males, in feed, site: liver, lesion: hepatocellular adenoma, dosed 104 weeks, study length 104 weeks) is reported as “negative (inactive)”. For the same compound, the carcinogen call (rat, strain F344/DuCrj, males, in feed, site: liver, lesion: hepatocellular carcinoma, dosed 104 weeks, study length 104 weeks) was “negative (inactive)”.
For `CC#N`, the carcinogen call (mouse, strain B6C3F1, females, inhaled, site: any site (literature study), lesion: several types, types named in the paper, dosed 103 weeks, study length 105 weeks) was “negative (inactive)”, the carcinogen call (mouse, strain B6C3F1, males, inhaled, site: any site (literature study), lesion: several types, types named in the paper, dosed 103 weeks, study length 104 weeks) was “negative (inactive)” and the TD50 (mouse, strain B6C3F1, males, inhaled, site: liver, lesion: hepatocellular adenoma + hepatoblastoma + hepatocellular carcinoma, dosed 103 weeks, study length 104 weeks) was 90.4 mg/kg/day. For the same compound, the TD50 (mouse, strain B6C3F1, males, inhaled, site: lung, lesion: alveolar/bronchiolar adenoma + alveolar/bronchiolar carcinoma, dosed 103 weeks, study length 104 weeks) was 318 mg/kg/day, the TD50 (rat, strain Fischer 344, females, inhaled, site: mammary gland, lesion: carcinoma + fibroadenoma, dosed 103 weeks, study length 104 weeks) was 11.5 mg/kg/day (inactive) and the TD50 (rat, strain Fischer 344, males, inhaled, site: adrenal medulla, lesion: pheochromocytoma benign, bilateral + pheochromocytoma, benign, dosed 103 weeks, study length 104 weeks) was 16.9 mg/kg/day. The TD50 (rat, strain Fischer 344, males, inhaled, site: adrenal medulla, lesion: pheochromocytoma benign, bilateral + pheochromocytoma, malignant + pheochromocytoma, benign, dosed 103 weeks, study length 104 weeks) was 14.8 mg/kg/day, the TD50 (rat, strain Fischer 344, males, inhaled, site: liver, lesion: hepatocellular adenoma + hepatoblastoma + hepatocellular carcinoma, dosed 103 weeks, study length 104 weeks) was 168 mg/kg/day and the TD50 (rat, strain Fischer 344, males, inhaled, site: liver, lesion: hepatocellular adenoma + hepatocellular carcinoma, dosed 103 weeks, study length 104 weeks) was 168 mg/kg/day. It also gave a TD50 (rat, strain Fischer 344, males, inhaled, site: liver, lesion: hepatocellular adenoma, dosed 103 weeks, study length 104 weeks) of 156 mg/kg/day, a TD50 (rat, strain Fischer 344, males, inhaled, site: liver, lesion: hepatocellular carcinoma, dosed 103 weeks, study length 104 weeks) of 398 mg/kg/day and a TD50 (rat, strain Fischer 344, males, inhaled, site: skin, lesion: basal-cell adenoma + keratoacanthoma + trichoepithelioma, dosed 103 weeks, study length 104 weeks) of 81.6 mg/kg/day. It also gave a TD50 (rat, strain Fischer 344, males, inhaled, site: skin, lesion: keratoacanthoma, dosed 103 weeks, study length 104 weeks) of 127 mg/kg/day.
